# Source: PubChem BioAssay (NCI)
#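 Cells were grown in 96-well plates and exposed to each compound for 48 hours at five concentrations; endpoints were interpolated linearly between bracketing concentrations, or set to the highest concentration if not reached. GI50 = concentration required for 50% inhibition of growth. TGI: total growth inhibition.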
# What was measured:
# Assay in all cases: DTP human tumour cell line panel, 48 h
# KM12 colon = tested on: KM12 colon
# 786-0 renal = tested on: 786-0 renal
# EKVX NSCLC = tested on: EKVX NSCLC
# OVCAR-3 ovarian = tested on: OVCAR-3 ovarian
# BT-549 breast = tested on: BT-549 breast
# MCF7 breast = tested on: MCF7 breast
# SK-MEL-2 melanoma = tested on: SK-MEL-2 melanoma
# SK-MEL-5 melanoma = tested on: SK-MEL-5 melanoma
# CAKI-1 renal = tested on: CAKI-1 renal
# SR leukemia = tested on: SR leukemia
# HOP-92 NSCLC = tested on: HOP-92 NSCLC
# A498 renal = tested on: A498 renal
# MOLT-4 leukemia = tested on: MOLT-4 leukemia
# UACC-257 melanoma = tested on: UACC-257 melanoma
# SK-MEL-28 melanoma = tested on: SK-MEL-28 melanoma
# A549 NSCLC = tested on: A549 NSCLC
# UACC-62 melanoma = tested on: UACC-62 melanoma
# IGROV1 ovarian = tested on: IGROV1 ovarian
# TK-10 renal = tested on: TK-10 renal
# MALME-3M melanoma = tested on: MALME-3M melanoma
# MDA-MB-468 breast = tested on: MDA-MB-468 breast
# PC-3 prostate = tested on: PC-3 prostate
# OVCAR-8 ovarian = tested on: OVCAR-8 ovarian
# NCI-H226 lung = tested on: NCI-H226 lung
# SW-620 colon = tested on: SW-620 colon
# CCRF-CEM leukemia = tested on: CCRF-CEM leukemia
# SF-295 CNS = tested on: SF-295 CNS
# HS 578T breast = tested on: HS 578T breast
# U251 CNS = tested on: U251 CNS
# SNB-19 CNS = tested on: SNB-19 CNS
# SNB-75 CNS = tested on: SNB-75 CNS
# HL-60(TB) leukemia = tested on: HL-60(TB) leukemia
# HOP-62 NSCLC = tested on: HOP-62 NSCLC
# OVCAR-5 ovarian = tested on: OVCAR-5 ovarian
# M14 melanoma = tested on: M14 melanoma
# NCI-H23 lung = tested on: NCI-H23 lung
# ACHN renal = tested on: ACHN renal
# SN12C renal = tested on: SN12C renal
# UO-31 renal = tested on: UO-31 renal
# SF-539 CNS = tested on: SF-539 CNS
# COLO 205 colon = tested on: COLO 205 colon
# MDA-MB-231 breast = tested on: MDA-MB-231 breast
# HCC-2998 colon = tested on: HCC-2998 colon
# LOX IMVI melanoma = tested on: LOX IMVI melanoma
# SF-268 CNS = tested on: SF-268 CNS
# HCT-15 colon = tested on: HCT-15 colon
# RXF 393 renal = tested on: RXF 393 renal
# SK-OV-3 ovarian = tested on: SK-OV-3 ovarian
# DU-145 prostate = tested on: DU-145 prostate
# K-562 leukemia = tested on: K-562 leukemia
# MDA-MB-435 = tested on: MDA-MB-435
# NCI-H522 lung = tested on: NCI-H522 lung
# OVCAR-4 ovarian = tested on: OVCAR-4 ovarian
# HCT-116 colon = tested on: HCT-116 colon
# NCI-H460 lung = tested on: NCI-H460 lung
smiles,measurement,setting,value
CC(C)(C)Nc1nc2cc(Cl)c(Cl)cc2nc1S(C)(=O)=O,GI50,KM12 colon,7.82 µM
same,TGI,KM12 colon,24.7 µM
same,GI50,786-0 renal,1.84 µM
same,TGI,786-0 renal,3.47 µM
same,GI50,EKVX NSCLC,13.3 µM
same,TGI,EKVX NSCLC,27 µM
same,GI50,OVCAR-3 ovarian,1.89 µM
same,TGI,OVCAR-3 ovarian,3.52 µM
same,GI50,BT-549 breast,1.74 µM
same,TGI,BT-549 breast,3.41 µM
same,GI50,MCF7 breast,1.9 µM
same,TGI,MCF7 breast,4.23 µM
same,GI50,SK-MEL-2 melanoma,4.14 µM
same,TGI,SK-MEL-2 melanoma,16.1 µM
same,GI50,SK-MEL-5 melanoma,2.18 µM
same,TGI,SK-MEL-5 melanoma,5.77 µM
same,GI50,CAKI-1 renal,1.58 µM
same,TGI,CAKI-1 renal,3.01 µM
same,GI50,SR leukemia,0.504 µM
same,TGI,SR leukemia,2.74 µM
same,GI50,HOP-92 NSCLC,2 µM
same,TGI,HOP-92 NSCLC,4.88 µM
same,GI50,A498 renal,19.2 µM
same,TGI,A498 renal,33.5 µM
same,GI50,MOLT-4 leukemia,0.411 µM
same,TGI,MOLT-4 leukemia,1.97 µM
same,GI50,UACC-257 melanoma,1.99 µM
same,TGI,UACC-257 melanoma,4.28 µM
same,GI50,SK-MEL-28 melanoma,1.79 µM
same,TGI,SK-MEL-28 melanoma,3.33 µM
same,GI50,A549 NSCLC,13.5 µM
same,TGI,A549 NSCLC,27.6 µM
same,GI50,UACC-62 melanoma,6.98 µM
same,TGI,UACC-62 melanoma,19.8 µM
same,GI50,IGROV1 ovarian,12.2 µM
same,TGI,IGROV1 ovarian,25.6 µM
same,GI50,TK-10 renal,1.7 µM
same,TGI,TK-10 renal,3.19 µM
same,GI50,MALME-3M melanoma,1.64 µM
same,TGI,MALME-3M melanoma,3.09 µM
same,GI50,MDA-MB-468 breast,1.64 µM
same,TGI,MDA-MB-468 breast,3.13 µM
same,GI50,PC-3 prostate,8.63 µM
same,TGI,PC-3 prostate,24.6 µM
same,GI50,OVCAR-8 ovarian,3.95 µM
same,TGI,OVCAR-8 ovarian,19.6 µM
same,GI50,NCI-H226 lung,11.4 µM
same,TGI,NCI-H226 lung,41.7 µM
same,GI50,SW-620 colon,1.48 µM
same,TGI,SW-620 colon,2.96 µM
same,GI50,CCRF-CEM leukemia,0.307 µM
same,TGI,CCRF-CEM leukemia,3.77 µM
same,GI50,SF-295 CNS,14.6 µM
same,TGI,SF-295 CNS,28.1 µM
same,GI50,HS 578T breast,7.29 µM
same,TGI,HS 578T breast,35.2 µM
same,GI50,U251 CNS,11.1 µM
same,TGI,U251 CNS,24.5 µM
same,GI50,SNB-19 CNS,13.8 µM
same,TGI,SNB-19 CNS,26.9 µM
same,GI50,SNB-75 CNS,8.16 µM
same,TGI,SNB-75 CNS,24.4 µM
same,GI50,HL-60(TB) leukemia,4.03 µM
same,TGI,HL-60(TB) leukemia,20.1 µM
same,GI50,HOP-62 NSCLC,14.9 µM
same,TGI,HOP-62 NSCLC,29.2 µM
same,GI50,OVCAR-5 ovarian,14.6 µM
same,TGI,OVCAR-5 ovarian,28.4 µM
same,GI50,M14 melanoma,1.71 µM
same,TGI,M14 melanoma,3.43 µM
same,GI50,NCI-H23 lung,2.09 µM
same,TGI,NCI-H23 lung,5.07 µM
same,GI50,ACHN renal,1.75 µM
same,TGI,ACHN renal,3.35 µM
same,GI50,SN12C renal,3.74 µM
same,TGI,SN12C renal,14.4 µM
same,GI50,UO-31 renal,1.58 µM
same,TGI,UO-31 renal,2.95 µM
same,GI50,SF-539 CNS,6.38 µM
same,TGI,SF-539 CNS,19.3 µM
same,GI50,COLO 205 colon,1.7 µM
same,TGI,COLO 205 colon,3.28 µM
same,GI50,MDA-MB-231 breast,3.11 µM
same,TGI,MDA-MB-231 breast,8.94 µM
same,GI50,HCC-2998 colon,8.7 µM
same,TGI,HCC-2998 colon,20.9 µM
same,GI50,LOX IMVI melanoma,1.35 µM
same,TGI,LOX IMVI melanoma,2.72 µM
same,GI50,SF-268 CNS,15.9 µM
same,TGI,SF-268 CNS,36.4 µM
same,GI50,HCT-15 colon,1.53 µM
same,TGI,HCT-15 colon,3.03 µM
same,GI50,RXF 393 renal,1.77 µM
same,TGI,RXF 393 renal,3.64 µM
same,GI50,SK-OV-3 ovarian,13.3 µM
same,TGI,SK-OV-3 ovarian,26.4 µM
same,GI50,DU-145 prostate,3.46 µM
same,TGI,DU-145 prostate,12.1 µM
same,GI50,K-562 leukemia,1.05 µM
same,TGI,K-562 leukemia,3.21 µM
same,GI50,MDA-MB-435,1.88 µM
same,TGI,MDA-MB-435,4.17 µM
same,GI50,NCI-H522 lung,1.2 µM
same,TGI,NCI-H522 lung,2.63 µM
same,GI50,OVCAR-4 ovarian,2.96 µM
same,TGI,OVCAR-4 ovarian,9.57 µM
same,GI50,HCT-116 colon,1.67 µM
same,TGI,HCT-116 colon,3.44 µM
same,GI50,NCI-H460 lung,8.46 µM
same,TGI,NCI-H460 lung,22.8 µM
